# Target: T1, activated p38 (Homo sapiens, UniProt Q16539)
# T1 construct: amplify the coding region of CSBP2 cDNA using a HeLa cell library; made in house; host or cells: Trichoplusia ni (Tn-368) High-Five insect cells, baculovirus (virus generated in Sf9)
# Experiment: p38 inhibition assay: inhibition of phosphorylation of EGF receptor peptide
# Format: biochemical
# Conditions: activated p38 5 nM, EGF receptor peptide 200 μM, ATP 100 μM, 30° C, 30 minutes
# Method: A. Inhibition of Phosphorylation of EGF Receptor Peptide
# This assay was carried out in the presence of 10 mM MgCl2, 25 mM β-glycerophosphate, 10% glycerol and 100 mM HEPES buffer at pH 7.6. For a typical IC50 determination, a stock solution was prepared containing all of the above components and activated p38 (5 nM). The stock solution was aliquotted into vials. A fixed volume of DMSO or inhibitor in DMSO (final concentration of DMSO in reaction was 5%) was introduced to each vial, mixed and incubated for 15 minutes at room temperature. EGF receptor peptide, […], a phosphoryl acceptor in p38-catalyzed kinase reaction (1), was added to each vial to a final concentration of 200 μM. The kinase reaction was initiated with ATP (100 μM) and the vials were incubated at 30° C. After 30 minutes, the reactions were quenched with equal volume of 10% trifluoroacetic acid (TFA).
# The phosphorylated peptide was quantified by HPLC analysis. Separation of phosphorylated peptide from the unphosphorylated peptide was achieved on a reverse phase column (Deltapak, 5 μm, C18 100D, Part no. 011795) with a binary gradient of water and acteonitrile, each containing 0.1% TFA. IC50 (concentration of inhibitor yielding 50% inhibition) was determined by plotting the percent (%) activity remaining against inhibitor concentration.
# T1 sequence (Q16539 whole entry): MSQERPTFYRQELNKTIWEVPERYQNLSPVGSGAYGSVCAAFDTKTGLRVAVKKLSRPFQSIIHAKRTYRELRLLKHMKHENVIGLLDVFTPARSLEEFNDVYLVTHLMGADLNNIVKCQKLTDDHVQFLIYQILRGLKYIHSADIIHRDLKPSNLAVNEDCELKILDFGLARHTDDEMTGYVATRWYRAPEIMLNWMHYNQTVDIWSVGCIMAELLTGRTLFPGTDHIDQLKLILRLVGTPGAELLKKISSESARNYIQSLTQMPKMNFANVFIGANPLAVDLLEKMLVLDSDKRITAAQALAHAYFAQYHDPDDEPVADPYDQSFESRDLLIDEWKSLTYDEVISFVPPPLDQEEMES
row,Structure (SMILES),IC50 [µM]
1,CCCCc1ccc(Nc2c(F)cccc2F)nc1 [Compound 401],≥ 10
2,CCOC(=O)C(=O)N(c1ccc(C(=O)c2cc(OC)cc(OC)c2)cn1)c1c(F)cccc1F [Compound 619],≤ 1
3,Cc1cccc(C(=O)c2ccc(N(C(=O)c3sc4ccccc4c3Cl)c3c(F)cccc3F)nc2)c1 [Compound 609],1 to 10
4,COC(=O)CCC(=O)N(c1ccc(C(=O)c2sccc2-n2cccc2)cn1)c1c(F)cccc1F [Compound 621],1 to 10
5,Cc1cccc(C(=O)c2ccc(N(C(=O)C3CCCCC3)c3c(F)cccc3F)nc2)c1 [Compound 607],≤ 1
6,Cc1cccc(C(=O)c2ccc(N(C(=O)CC(C)C)c3c(F)cccc3F)nc2)c1 [Compound 614],≤ 1
7,O=C(c1ccc(N(C(=O)c2sc3ccccc3c2Cl)c2c(F)cccc2F)nc1)c1sccc1-n1cccc1 [Compound 622],≤ 1
8,CC(C)CC(=O)c1ccc(Nc2c(F)cccc2F)nc1 [Compound 119],≤ 1
9,Cc1occc1C(=O)c1ccc(Nc2c(F)cccc2F)nc1 [Compound 117],≤ 1
10,CCOC(=O)C(=O)N(c1ccc(C(=O)c2ccc(Cl)c(C)c2)cn1)c1c(F)cccc1F [Compound 618],1 to 10
11,CC(C)(C)c1ccc(C(=O)c2ccc(Nc3c(F)cccc3F)nc2)cc1 [Compound 105],≤ 1
12,NC(=O)N(c1ccc(C#CCOc2c(Cl)cccc2Cl)cn1)c1c(F)cccc1F [Compound 402],≥ 10
13,COc1cc(OC)cc(C(=O)c2ccc(Nc3c(F)cccc3F)nc2)c1 [Compound 115],≤ 1
14,OC(c1ccccc1)c1ccc(Nc2c(F)cccc2F)nc1 (centres unmarked) [Compound 201],≤ 1
15,Cc1cccc(C(=O)c2ccc(Nc3c(F)cccc3F)nc2)c1 [Compound 104],≤ 1
16,Cc1cccc(C(=O)c2ccc(N(C(=O)C(C)(C)C)c3c(F)cccc3F)nc2)c1 [Compound 604],≤ 1
17,[O-][S+](c1ccccc1)c1ccc(Nc2c(F)cccc2F)nc1 (centres unmarked) [Compound 501],≥ 10
18,O=C(c1ccc(Br)cc1)c1ccc(Nc2c(F)cccc2F)nc1 [Compound 106],≤ 1
19,Cc1cccc(C(=O)c2ccc(N(C(=O)c3ccc(Br)cc3)c3c(F)cccc3F)nc2)c1 [Compound 606],≥ 10
20,NC(=O)C(c1cc(C(F)(F)F)cc(C(F)(F)F)c1)c1ccc(SCc2ccco2)nn1 (centres unmarked) [Compound 301],1 to 10
21,CCOC(=O)C(=O)N(c1ccc(C(=O)c2cccc(C)c2)cn1)c1c(F)cccc1F [Compound 613],≤ 1
22,O=C(c1ccc(Nc2c(F)cccc2F)nc1)c1ccc2ccccc2c1 [Compound 110],≤ 1
23,CC(=O)N(c1ccc(C(=O)c2cccc(C)c2)cn1)c1c(F)cccc1F [Compound 605],≤ 1
24,COc1cc(C(=O)c2ccc(Nc3c(F)cccc3F)nc2)cc(OC)c1OC [Compound 118],1 to 10
25,O=C(c1ccc(-c2ccccc2)cc1)c1ccc(Nc2c(F)cccc2F)nc1 [Compound 108],≤ 1
26,Cc1cccc(C(=O)c2ccc(N(C(=O)c3cccc(C(F)(F)F)c3)c3c(F)cccc3F)nc2)c1 [Compound 611],≤ 1

row,Structure (SMILES),IC50 [µM]
1,O=C(c1ccc(Nc2c(F)cccc2F)nc1)c1ccccc1Cl [Compound 107],≤ 1
2,COCC(=O)N(c1ccc(C(=O)c2cccc(C)c2)cn1)c1c(F)cccc1F [Compound 602],1 to 10
3,O=S(=O)(c1ccccc1)c1ccc(Nc2c(F)cccc2F)nc1 [Compound 502],≥ 10
4,COC(=O)CCC(=O)N(c1ccc(C(=O)c2ccc(Cl)c(C)c2)cn1)c1c(F)cccc1F [Compound 616],≥ 10
5,Cc1cccc(C(=O)c2ccc(N(C(=O)c3snnc3C)c3c(F)cccc3F)nc2)c1 [Compound 603],1 to 10
6,Cc1cccc(C(=O)c2ccc(N(C(=O)c3ccccc3)c3c(F)cccc3F)nc2)c1 [Compound 601],1 to 10
7,Cc1cccc(C(=O)c2ccc(N(C(=O)c3ccc(F)c(C(F)(F)F)c3)c3c(F)cccc3F)nc2)c1 [Compound 610],≤ 1
8,N#Cc1ccc(C(=O)c2ccc(Nc3c(F)cccc3F)nc2)cc1 [Compound 103],1 to 10
9,Cc1cc(C(=O)c2ccc(Nc3c(F)cccc3F)nc2)ccc1Cl [Compound 114],≤ 1
10,COc1ccc(C(=O)c2ccc(Nc3c(F)cccc3F)nc2)cc1OC [Compound 111],1 to 10
11,Cc1cccc(C(=O)c2ccc(N(C(=O)C(C)Oc3ccccc3)c3c(F)cccc3F)nc2)c1 (centres unmarked) [Compound 612],≥ 10
12,O=C(c1ccc(Nc2c(F)cccc2F)nc1)c1cc2ccccc2s1 [Compound 120],1 to 10
13,COC(=O)CCC(=O)N(c1ccc(C(=O)c2cccc(C)c2)cn1)c1c(F)cccc1F [Compound 608],1 to 10
14,O=C(c1ccc(Cl)cc1)c1ccc(Nc2c(F)cccc2F)nc1 [Compound 112],≤ 1
15,O=C(c1ccc(Nc2c(F)cccc2F)nc1)c1cc(Cl)ccc1Cl [Compound 113],≤ 1
16,O=C(c1ccc(Nc2c(F)cccc2F)nc1)c1ccc(Cl)c(Cl)c1 [Compound 109],≥ 10
17,O=C(c1ccc(N(C(=O)c2cccc(C(F)(F)F)c2)c2c(F)cccc2F)nc1)c1sccc1-n1cccc1 [Compound 623],≤ 1
18,O=C(c1ccc(N(C(=O)c2ccc(Br)cc2)c2c(F)cccc2F)nc1)c1sccc1-n1cccc1 [Compound 620],≤ 1
19,O=C(c1ccc(Nc2c(F)cccc2F)nc1)c1cccc(Cl)c1 [Compound 102],≤ 1
20,Fc1cccc(F)c1Nc1ccc(Sc2ccccc2)cn1 [Compound 503],≤ 1
21,CC(Oc1ccccc1)C(=O)N(c1ccc(C(=O)c2sccc2-n2cccc2)cn1)c1c(F)cccc1F (centres unmarked) [Compound 624],≤ 1
22,O=C(c1ccc(Nc2c(F)cccc2F)nc1)c1sccc1-n1cccc1 [Compound 116],≤ 1
23,Cc1cc(C(=O)c2ccc(N(C(=O)C(C)Oc3ccccc3)c3c(F)cccc3F)nc2)ccc1Cl (centres unmarked) [Compound 617],1 to 10
24,"O=C(c1ccccc1)c1ccc(Nc2c(F)cccc2F)nc1 [Compound 101, (6-(2,6-Difluorophenylamino)-pyridin-3-yl]-phenylmethanone]",≤ 1
25,Cc1cc(C(=O)c2ccc(N(C(=O)c3ccc(Br)cc3)c3c(F)cccc3F)nc2)ccc1Cl [Compound 615],≥ 10

# Target: T1, activated p38
# Experiment: p38 inhibition assay: inhibition of ATPase activity
# Format: biochemical
# Conditions: ATPase activity of activated p38 (60 nM), various ATP concentrations
# Method: B. Inhibition of ATPase Activity
# This assay is carried out in the presence of 10 mM MgCl2, 25 mM β-glycerophosphate, 10% glycerol and 100 mM HEPES buffer at pH 7.6. For a typical Ki determination, the Km for ATP in the ATPase activity of activated p38 reaction is determined in the absence of inhibitor and in the presence of two concentrations of inhibitor. A stock solution is prepared containing all of the above components and activated p38 (60 nM). The stock solution is aliquotted into vials. A fixed volume of DMSO or inhibitor in DMSO (final concentration of DMSO in reaction was 2.5%) is introduced to each vial, mixed and incubated for 15 minutes at room temperature. The reaction is initiated by adding various concentrations of ATP and then incubated at 30° C. After 30 minutes, the reactions are quenched with 50 μl of EDTA (0.1 M, final concentration), pH 8.0. The product of p38 ATPase activity, ADP, is quantified by HPLC analysis.
# Separation of ADP from ATP is achieved on a reversed phase column (Supelcosil, LC-18, 3 μm, part no. 5-8985) using a binary solvent gradient of following composition: Solvent A—0.1 M phosphate buffer containing 8 mM tetrabutylammonium hydrogen sulfate (Sigma Chemical Co., catalogue no. T-7158), Solvent B—Solvent A with 30% methanol.
# Ki is determined from the rate data as a function of inhibitor and ATP concentrations.
row,Structure (SMILES),Ki [µM]
1,O=C(c1ccc(N(C(=O)Oc2ccc(F)cc2)c2c(F)cccc2F)nc1)c1ccccc1Cl [Compound 632],1 to 10
2,O=C(c1ccc(N(C(=O)OCc2ccccc2)c2c(F)cccc2F)nc1)c1ccccc1Cl [Compound 631],1 to 10
3,O=C(c1ccccc1)c1ccc(N(C(=O)Oc2ccc(F)cc2)c2c(F)cccc2F)nc1 [Compound 628],1 to 10
4,O=C(c1ccc(N(C(=O)CCc2ccccc2)c2c(F)cccc2F)nc1)c1ccccc1Cl [Compound 629],1 to 10
5,O=C(c1ccc(N(C(=O)Cc2ccc(F)cc2)c2c(F)cccc2F)nc1)c1sccc1-n1cccc1 [Compound 634],1 to 10
6,O=C(c1ccc(N(C(=O)Cc2ccc(F)cc2)c2c(F)cccc2F)nc1)c1ccccc1Cl [Compound 630],1 to 10
7,O=C(c1ccc(N(C(=O)OCc2ccccc2)c2c(F)cccc2F)nc1)c1sccc1-n1cccc1 [Compound 635],1 to 10
8,O=C(c1ccccc1)c1ccc(N(C(=O)OCc2ccccc2)c2c(F)cccc2F)nc1 [Compound 627],1 to 10
9,O=C(c1ccccc1)c1ccc(N(C(=O)Cc2ccc(F)cc2)c2c(F)cccc2F)nc1 [Compound 626],1 to 10
10,O=C(c1ccccc1)c1ccc(N(C(=O)CCc2ccccc2)c2c(F)cccc2F)nc1 [Compound 625],1 to 10
11,O=C(c1ccc(N(C(=O)CCc2ccccc2)c2c(F)cccc2F)nc1)c1sccc1-n1cccc1 [Compound 633],1 to 10
